According to patent US4594347A, “Pyrrolo [3,2,1-ij]-quinoline carboxylic acid compound” (Otsuka Pharmaceutical Co. Limited, priority 1983, dated 1986):

Legend:
Experiment in all cases: Antimicrobial test in vitro (MIC, agar plate dilution method)
Format in all cases: cell-based
Set-up in all cases: unit not given here
[1] = tested on: Serratia marcescens IFO 12648; settings: S. marcescens IFO 12648
Experimental: (§1) The antimicrobial activities of the following test compounds were tested by measuring the minimum inhibitory concentration (MIC) by an agar plate dilution method [cf. Chemotherapy, 22, 1126-1128 (1974)]. The test microorganisms were used in a concentration of 1×10^8 cells/ml (optical dencity (O.D.) at 660 m: 0.07-0.16) and 1×10^6 cells/ml (dilution: 100 folds).
H: Serratia marcescens IFO 12648

[2] = tested on: Escherichia coli No. 29; settings: E. coli No. 29
Experimental: as §1
D: Escherichia coli No. 29

[3] = tested on: Staphylococcus aureus FDA 209P; settings: S. aureus FDA 209P
Experimental: as §1
A: Staphylococcus aureus FDA 209P

[4] = tested on: Acinetobacter calcoaceticus AC-54; settings: A. calcoaceticus AC-54
Experimental: as §1
I: Acinetobacter calcoaceticus AC-54

[5] = tested on: Pseudomonas aeruginosa ATCC 10145; settings: P. aeruginosa ATCC 10145
Experimental: as §1
J: Pseudomonas aeruginosa ATCC 10145

[6] = tested on: Pseudomonas aeruginosa E-2; settings: P. aeruginosa E-2
Experimental: as §1
K: Pseudomonas aeruginosa E-2

[7] = tested on: Klebsiella pneumoniae NCTC 9632; settings: K. pneumoniae NCTC 9632
Experimental: as §1
E: Klebsiella pneumoniae NCTC 9632

[8] = tested on: Escherichia coli NIHJ JC-2; settings: E. coli NIHJ JC-2
Experimental: as §1
C: Escherichia coli NIHJ JC-2

[9] = tested on: Streptococcus pyogenes II D S-23; settings: S. pyogenes II D S-23
Experimental: as §1
B: Streptococcus pyogenes II D S-23

[10] = tested on: Proteus morganii II D Kono; settings: P. morganii II D Kono
Experimental: as §1
G: Proteus morganii II D Kono

[11] = tested on: Proteus mirabilis 1287; settings: P. mirabilis 1287
Experimental: as §1
F: Proteus mirabilis 1287

Row | Compound | minimum inhibitory concentration (MIC) ([1]; 1×10^6 cells/ml) | minimum inhibitory concentration (MIC) ([1]; 1×10^8 cells/ml) | minimum inhibitory concentration (MIC) ([2]; 1×10^6 cells/ml) | minimum inhibitory concentration (MIC) ([2]; 1×10^8 cells/ml) | minimum inhibitory concentration (MIC) ([3]; 1×10^6 cells/ml) | minimum inhibitory concentration (MIC) ([3]; 1×10^8 cells/ml) | minimum inhibitory concentration (MIC) ([4]; 1×10^6 cells/ml) | minimum inhibitory concentration (MIC) ([4]; 1×10^8 cells/ml) | minimum inhibitory concentration (MIC) ([5]; 1×10^6 cells/ml) | minimum inhibitory concentration (MIC) ([5]; 1×10^8 cells/ml) | minimum inhibitory concentration (MIC) ([6]; 1×10^6 cells/ml) | minimum inhibitory concentration (MIC) ([6]; 1×10^8 cells/ml) | minimum inhibitory concentration (MIC) ([7]; 1×10^6 cells/ml) | minimum inhibitory concentration (MIC) ([7]; 1×10^8 cells/ml) | minimum inhibitory concentration (MIC) ([8]; 1×10^6 cells/ml) | minimum inhibitory concentration (MIC) ([8]; 1×10^8 cells/ml) | minimum inhibitory concentration (MIC) ([9]; 1×10^6 cells/ml) | minimum inhibitory concentration (MIC) ([9]; 1×10^8 cells/ml) | minimum inhibitory concentration (MIC) ([10]; 1×10^6 cells/ml) | minimum inhibitory concentration (MIC) ([10]; 1×10^8 cells/ml) | further results
1 | CC1Cc2c(N3CCCC3)c(F)c(N)c3c(=O)c(C(=O)O)cn1c23 (centres unmarked) [Compound 6, 7-amino-8-fluoro-2-methyl-6-oxo-9-(1-pyrrolidinyl)-1,2-dihydro-pyrrolo[3,2,1-ij]quinoline-5-carboxylic acid] | 6.25 | 6.25 | 1.56 | 1.56 | 0.39 | 0.78 | 6.25 | 6.25 | 6.25 | 12.5 | 1.56 | 12.5 | 1.56 | 6.25 | 0.78 | 1.56 | 6.25 | 12.5 | 6.25 | 6.25 | minimum inhibitory concentration (MIC) ([11]; 1×10^6 cells/ml): 6.25; minimum inhibitory concentration (MIC) ([11]; 1×10^8 cells/ml): 6.25
2 | CC1Cc2c(N3CCC(O)CC3)c(F)c(N)c3c(=O)c(C(=O)O)cn1c23 (centres unmarked) [Compound 5, 7-amino-8-fluoro-9-(4-hydroxy-1-piperidyl)-2-methyl-6-oxo-1,2-dihydro-pyrrolo[3,2,1-ij]quinoline-5-carboxylic acid] | 1.56 | 3.13 | 0.78 | 0.78 | 0.2 | 0.39 | 3.13 | 6.25 | 6.25 | 6.25 | 6.25 | 12.5 | 0.78 | 0.78 | 0.39 | 0.78 | 6.25 | 12.5 | 1.56 | 1.56 | minimum inhibitory concentration (MIC) ([11]; 1×10^6 cells/ml): 1.56; minimum inhibitory concentration (MIC) ([11]; 1×10^8 cells/ml): 1.56
3 | CC1Cc2c(N3CCOCC3)c(F)c(N)c3c(=O)c(C(=O)O)cn1c23 (centres unmarked) [Compound 3, 7-amino-8-fluoro-9-(4-morpholino)-2-methyl-6-oxo-1,2-dihydro-pyrrolo[3,2,1-ij]quinoline-5-carboxylic acid] | 0.78 | 0.78 | 0.2 | 0.39 | 0.2 | 0.39 | 0.78 | 1.56 | 3.13 | 6.25 | 6.25 | 6.25 | 0.39 | 0.39 | 0.2 | 0.2 | 12.5 | 12.5 | 0.39 | 0.39 | minimum inhibitory concentration (MIC) ([11]; 1×10^6 cells/ml): 0.78; minimum inhibitory concentration (MIC) ([11]; 1×10^8 cells/ml): 1.56
4 | CC1Cc2c(N3CCCCC3)c(F)c(N)c3c(=O)c(C(=O)O)cn1c23 (centres unmarked) [Compound 4, 7-amino-8-fluoro-2-methyl-6-oxo-9-(1-piperidyl)-1,2-dihydro-pyrrolo[3,2,1-ij]quinoline-5-carboxylic acid] | 6.25 | 6.25 | 1.56 | 1.56 | 0.39 | 0.39 | 6.25 | 6.25 | 12.5 | 25 | 25 | 25 | 1.56 | 3.13 | 0.78 | 0.78 | 25 | 25 | 1.56 | 1.56 | minimum inhibitory concentration (MIC) ([11]; 1×10^6 cells/ml): 6.25; minimum inhibitory concentration (MIC) ([11]; 1×10^8 cells/ml): 6.25
5 | CC1Cc2c(N3CCNCC3)c(F)c(N)c3c(=O)c(C(=O)O)cn1c23 (centres unmarked) [Compound 2, 8-fluoro-2-methyl-9-(1-piperazinyl)-7-amino-6-oxo-1,2-dihydro-pyrrolo[3,2,1-ij]quinoline-5-carboxylic acid] | 0.2 | 0.2 | 0.1 | 0.1 | 0.39 | 0.78 | 0.78 | 3.13 | 0.39 | 0.39 | 0.39 | 0.39 | 0.1 | 0.2 | 0.1 | 0.1 | 3.13 | 6.25 | 0.2 | 0.39 | minimum inhibitory concentration (MIC) ([11]; 1×10^6 cells/ml): 0.2; minimum inhibitory concentration (MIC) ([11]; 1×10^8 cells/ml): 0.2
